We go through three compounds from patent US20140243324A1, “USE OF HEMATOPOIETIC GROWTH FACTOR MIMETICS” (LIGAND PHARMACEUTICALS INCORPORATED, priority 2010, published 2014).

Assay [1] has as its system CD34+ human bone marrow hematopoietic cells (BM-HCs). Nature of the assay: Percentage of CD235a (glycophorin A) positive cells in CD34+ BM-HCs. It is filed as cell-based.
Assay [2] relates to EPO responsive genes (hemoglobin α, EPO receptor, BCL2L1). Nature of the assay: Expression of EPO responsive genes in CD34 positive BM-HCs. Type of assay: cell-based, human.
In assay [3] the test system is BM-HCs. In words: BFU-E colony formation in BM-HCs, 14 days. It is filed as cell-based, human. The settings on record: incubated with BM-HCs for 14 days. Here is the method:
(§1) In addition, Compound 103 stimulated the formation of BFU-E colonies with partial efficacy (30%) when incubated with BM-HCs for 14 days. The effect of Compound 103 on BM-HCs was specific for the erythroid lineage.

Assay [4] has as its system BM-HCs. Nature of the assay: Lineage specificity in BM-HCs (CD41, CD15 markers). Type of assay: cell-based, human. As to the method:
as §1

The next assay relates to UT7EPO cells. In words: Apoptosis induced by EPO withdrawal / cell survival in UT7EPO cells. It is filed as cell-based, human. As to the method: (§2) Using human cell lines, the action of Compound 103 was determined to be dependent on the EPO receptor and involves the selective activation of the PI3K/AKT-GATA1 signaling pathway.
Assay [5] has as its system BCL2L1. Nature of the assay: BCL2L1 expression in UT7EPO cells. It is filed as cell-based, human. As to the method:
as §2

The target of another assay is T1, EPOR (Homo sapiens, UniProt P19235).
T1 construct: In the human EPO-dependent cell line UT7EPO; endogenous in cells; host or cells: UT7EPO cells
In words: Phosphorylation of EPOR in UT7EPO cells. It is filed as cell-based. As to the method: as §2

Assay [6] deals with PI3K. Nature of the assay: Phosphorylation of PI3K in UT7EPO cells. Type of assay: cell-based, human. Here is the method:
as §2

The test system of assay [7] is GATA1. In words: Phosphorylation of GATA1 in UT7EPO cells. It is filed as cell-based, human. Here is the method:
as §2

Assay [8] has as its system STAT5. In words: Phosphorylation of STAT5 in UT7EPO cells. Type of assay: cell-based, human. As to the method: as §2
For a further assay, the system named is ERK/MAPK. Nature of the assay: Phosphorylation of ERK/MAPK in UT7EPO cells. It is filed as cell-based, human. As to the method: as §2
Assay [9] relates to GATA1. In words: Binding of GATA1 to DNA in UT7EPO cells. It is filed as cell-based, human. As to the method:
as §2

Assay [10] deals with STAT5. Nature of the assay: STAT5 DNA binding in UT7EPO cells. It is filed as cell-based, human. As to the method:
as §2

A further assay relates to Mo7e cells. In words: Apoptosis in Mo7e cells that lack EPO receptor. Type of assay: cell-based. Particulars: GM-CSF- and TPO-responsive human leukemia Mo7e cells that lack EPO receptor.
In assay [11] the test system is BCL2L1. Nature of the assay: BCL2L1 expression in Mo7e cells that lack EPO receptor. Type of assay: cell-based. The settings on record: GM-CSF- and TPO-responsive human leukemia Mo7e cells that lack EPO receptor.
The subject of the next assay is Erythroid cells. Nature of the assay: EPO-dependent cell viability assay. The settings on record: for maximum efficacy relative to the efficacy of EPO (cell viability): erythroid cells, FIG. 3; for erythropoietic efficacy compared with EPO at typical serum concentrations: typical EPO in blood approx. 0.01 U/ml. It is filed as cell-based. As to the method: Erythroid cells were treated with various concentrations of recombinant human EPO, Compound 101, or Compound 102, and the viability of treated cells was measured. The maximum efficacies of Compounds 101 and 102 was approximately 40% of the efficacy of EPO, corresponding to EPO EC40 of approximately 0.02 U/ml (FIG. 3). The typical EPO concentration in blood is approximately 0.01 U/ml, with a range from about 0.006 U/ml to about 0.032 U/ml.

The target of the next assay is T2, EPO receptor (Homo sapiens, UniProt P19235).
T2 construct: endogenous in cells; host or cells: UT7 cells
Nature of the assay: Phosphorylation of the EPO receptor in UT7 cells. It is filed as cell-based. Particulars: 10 nM or 100 nM, 15 or 45 minutes, FIG. 5A. As to the method:
(§3) UT7 cells were treated with 10 nM Compound 102, 100 nM Compound 102, or control (vehicle). Phosphorylation of the EPO receptor was measured after 15 minutes or 45 minutes of treatment with Compound 101 or control (vehicle) (FIG. 5A). Phosphorylation of PI3K was measured after 60 minutes of treatment with EPO, Compound 101, or control (vehicle) (FIG. 5B). Phosphorylation of GATA1 was measured after 60 minutes treatment with Compound 102, EPO or control (vehicle) (FIG. 5C).

Assay [12] deals with GATA1. In words: Phosphorylation of GATA1 in UT7 cells. Type of assay: cell-based, human. Particulars: 60 minutes, FIG. 5C. As to the method: as §3
Assay [13] concerns GATA1. In words: Electrophoretic mobility shift assay for GATA1 in UT7 cells. Type of assay: cell-based, human. Particulars: 30 minute treatment. As to the method:
Binding of GATA1 to DNA was measured in an electrophoretic mobility shift assay for GATA1 in UT7 cells after 30 minute treatments with 1 U/ml EPO, 30 nM Compound 102, or 100 nM Compound 101.
On the technique in general: A gel shift assay detects complexes by their altered migration in electrophoresis.

The test system of assay [14] is CD34+ human bone marrow cells (BM-HCs). Nature of the assay: Relative differentiation of human bone marrow cells (CD235a expression). Type of assay: cell-based. Particulars: 10 nm Compound 101; FIG. 4. As to the method:
CD34+ human bone marrow cells (BM-HCs) were treated with various concentrations of recombinant human EPO, Compound 101, Compound 102, or control. The number of cells expressing the erythrocyte-specific marker, CD235a (glycophorin A), was measured. […] The level of expression of CD235a in cells treated with 10 nm Compound 101 was approximately 37% of the level of expression of CD235a in cells treated with 2.0 U/ml EPO.

For assay [15], the system named is CD34+ human bone marrow cells. In words: BFU-E colony formation in human CD34+ bone marrow cells. It is filed as cell-based. Particulars: Compound 101 10 nM. Here is the method: CD34+ human bone marrow cells were incubated with recombinant human EPO, Compound 101, or control. Compound 101 stimulated the formation of BFU-E colonies with partial efficacy (31%) when incubated with BM-HCs.

Assay [16] relates to PI3K. Nature of the assay: Phosphorylation of PI3K in UT7 cells. Type of assay: cell-based, human. Particulars: 60 minutes, FIG. 5B. Here is the method:
as §3

The subject of the next assay is UT7 cells. Nature of the assay: Relative cell viability of UT7 cells transfected with EPO receptor- and GATA1-specific siRNAs. It is filed as cell-based, human. The settings on record: 30 nM Compound 101, FIG. 7. As to the method: UT7 cells transfected with EPO receptor- and GATA1-specific siRNAs were treated with 1 U/ml EPO, 30 nM Compound 101, or control (vehicle). The relative cell viability of the cells was measured (FIG. 7).

T2 sequence (P19235 25-508): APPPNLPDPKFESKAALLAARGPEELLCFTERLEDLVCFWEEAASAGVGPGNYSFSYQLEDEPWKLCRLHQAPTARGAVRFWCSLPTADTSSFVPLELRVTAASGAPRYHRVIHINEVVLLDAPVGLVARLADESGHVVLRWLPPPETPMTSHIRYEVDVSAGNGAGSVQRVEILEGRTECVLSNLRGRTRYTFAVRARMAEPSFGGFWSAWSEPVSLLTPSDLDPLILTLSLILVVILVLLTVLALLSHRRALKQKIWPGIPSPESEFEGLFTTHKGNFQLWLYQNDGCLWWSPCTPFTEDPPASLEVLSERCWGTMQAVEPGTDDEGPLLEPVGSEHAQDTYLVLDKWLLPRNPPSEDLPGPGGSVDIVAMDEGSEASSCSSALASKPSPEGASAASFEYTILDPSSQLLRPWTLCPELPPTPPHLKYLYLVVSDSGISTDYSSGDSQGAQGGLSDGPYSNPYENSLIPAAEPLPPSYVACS
T2 sequence (O60674 whole entry partner): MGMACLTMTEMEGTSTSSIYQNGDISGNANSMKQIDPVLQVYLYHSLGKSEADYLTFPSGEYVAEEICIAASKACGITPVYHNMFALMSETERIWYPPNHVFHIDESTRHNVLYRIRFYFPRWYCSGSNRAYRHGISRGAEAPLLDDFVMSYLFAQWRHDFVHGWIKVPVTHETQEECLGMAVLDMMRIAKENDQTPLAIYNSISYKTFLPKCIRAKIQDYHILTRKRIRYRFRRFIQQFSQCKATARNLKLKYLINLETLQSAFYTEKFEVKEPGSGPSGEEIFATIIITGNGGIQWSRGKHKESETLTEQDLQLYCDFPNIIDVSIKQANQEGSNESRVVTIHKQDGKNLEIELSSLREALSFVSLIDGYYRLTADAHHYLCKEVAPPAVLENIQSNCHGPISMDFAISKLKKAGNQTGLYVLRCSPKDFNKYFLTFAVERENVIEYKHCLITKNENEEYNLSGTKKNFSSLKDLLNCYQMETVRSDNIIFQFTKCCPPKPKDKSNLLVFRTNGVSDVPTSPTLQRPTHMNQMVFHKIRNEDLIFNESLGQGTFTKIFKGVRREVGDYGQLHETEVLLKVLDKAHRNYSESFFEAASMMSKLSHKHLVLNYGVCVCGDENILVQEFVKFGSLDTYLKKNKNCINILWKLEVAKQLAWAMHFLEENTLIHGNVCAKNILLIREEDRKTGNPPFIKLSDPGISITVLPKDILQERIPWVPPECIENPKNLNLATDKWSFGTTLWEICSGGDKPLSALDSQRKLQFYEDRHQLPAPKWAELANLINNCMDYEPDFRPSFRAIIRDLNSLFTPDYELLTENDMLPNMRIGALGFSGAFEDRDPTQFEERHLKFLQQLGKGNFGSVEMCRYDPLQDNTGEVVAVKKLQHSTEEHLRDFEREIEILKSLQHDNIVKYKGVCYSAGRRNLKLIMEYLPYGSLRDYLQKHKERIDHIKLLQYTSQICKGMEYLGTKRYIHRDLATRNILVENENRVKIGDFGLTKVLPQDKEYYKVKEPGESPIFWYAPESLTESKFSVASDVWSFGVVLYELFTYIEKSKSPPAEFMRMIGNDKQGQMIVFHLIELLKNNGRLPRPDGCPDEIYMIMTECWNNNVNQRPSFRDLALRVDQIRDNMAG
T1 sequence (P19235 25-508): as the sequence (P19235 25-508) above
T1 sequence (O60674 whole entry partner): as the sequence (O60674 whole entry partner) above

Turning to `CN(C)c1ccc(C(=O)N/N=C/c2cccc(/C=N/NC(=O)c3ccc(N(C)C)cc3)c2)cc1` [Compound 103, (N′,N′″E,N′,N′″E)-N′,N′″-(1,3-phenylenebis(methanylylidene))bis(4-(dimethylamino)benzohydrazide)], the “erythropoietic effect in combination with EPO” value in [1] (BM-HCs) is “additive to the effect of EPO”. The EC50 (in general, the concentration giving half of the maximal effect) in assay [1] (Homo sapiens, CD34+ BM-HCs, read-out: EC50, increase of percentage of cells positive for CD235a) is 2 nM; in the assay on UT7EPO cells (Homo sapiens, UT-7/Epo, UT7EPO cells, read-out: EC50, block of apoptosis induced by EPO withdrawal), 10 nM. The Emax in assay [1] (Homo sapiens, CD34+ BM-HCs, read-out: efficacy relative to the maximal effect of EPO (3 U/ml), CD235a positive cells) worked out at 42%. In [1] (normal serum EPO (−0.01 U/ml)), the “efficacy compared with the normal serum EPO concentration, CD235a positive cells” value is “greater than the efficacy of the normal serum EPO concentration”. Besides, in assay [2], the “expression of EPO responsive genes including hemoglobin α, EPO receptor and BCL2L1” value is on record as “stimulated the expression”. Besides, the “formation of BFU-E colonies, partial efficacy” value in the assay on BM-HCs [3] was determined as 30%. Also, in the assay with BM-HCs [4], the “percentage of BM-HCs positive for the granulocyte marker CD15” value is recorded as “did not increase”. The “percentage of BM-HCs positive for the megakaryocyte marker CD41” value in the assay on BM-HCs [4] was “did not increase”. The “activity after transfection with EPO receptor- and GATA1-specific siRNAs” value in the assay on UT7EPO cells (UT7EPO cells) is “blocked the activity”. For the same compound, the “effect on cell survival in presence of the PI3K inhibitor LY294002” value in the assay with UT7EPO cells (UT7EPO cells incubated with LY294002) is listed as “blocked the effect”. The “stimulation of the expression of BCL2L1, efficacy” value in the assay with BCL2L1 [5] was “efficacy comparable to EPO”. Moreover, on EPOR, the “phosphorylation of EPOR” value is “stimulated the phosphorylation”. Further, the “phosphorylation of PI3K” value in the assay with PI3K [6] was “stimulated the phosphorylation”. In addition, the “phosphorylation of GATA1” value in the assay on GATA1 [7] is “stimulated the phosphorylation”. In addition, in the assay with STAT5 [8], the “phosphorylation of STAT5” value is “did not stimulate phosphorylation”. Besides, the “phosphorylation of ERK/MAPK” value in the assay on ERK/MAPK is given as “did not stimulate phosphorylation”. For the same compound, the “binding of GATA1 to DNA” value in the assay with GATA1 [9] is recorded as “induced the binding of GATA1 to DNA”. In addition, the “induction of STAT5 DNA binding” value in the assay with STAT5 [10] is recorded as “did not”. For the same compound, the block of apoptosis result in the assay with Mo7e cells is “did not block apoptosis”. Also, in the assay with BCL2L1 [11], the “stimulation of BCL2L1 expression” value is recorded as “did not”.

Turning to `COc1cccc(C(=O)N/N=C/c2ccc(Oc3ccc(/C=N/NC(=O)c4cccc(OC)c4)cc3)cc2)c1` [Compound 102, (N′,N′″E,N′,N′″E)-N′,N′″-((oxybis(4,1-phenylene))bis(methanylylidene))bis(3-methoxybenzohydrazide)], in the assay on Erythroid cells, the “maximum efficacy relative to the efficacy of EPO (cell viability)” value is on record as “approximately 40%” and the “erythropoietic efficacy compared with EPO at typical serum concentrations” value is given as “greater than would be predicted for EPO at typical serum concentrations”. Moreover, the “phosphorylation of the EPO receptor” value at EPO receptor is on record as “stimulated phosphorylation”. Besides, the “phosphorylation of GATA1” value in the assay on GATA1 [12] is “stimulated phosphorylation”. Also, the “binding of GATA1 to DNA (EMSA)” value with GATA1 [13] (30 nM Compound 102) was “induce binding of GATA1 to DNA”.

Consider `CN(C)c1ccc(C(=O)N/N=C/c2ccc(Oc3ccc(/C=N/NC(=O)c4ccc(N(C)C)cc4)cc3)cc2)cc1` [Compound 101, (N′,N′″E,N′,N′″E)-N′,N′″-((Oxybis(4,1-phenylene))bis(methanylylidene))bis(4-(dimethylamino)benzohydrazide)], for which, in the assay on Erythroid cells, the “maximum efficacy relative to the efficacy of EPO (cell viability)” value is recorded as “approximately 40%” and the “erythropoietic efficacy compared with EPO at typical serum concentrations” value is on record as “greater than would be predicted for EPO at typical serum concentrations”. In [14], the “level of expression of CD235a compared with cells treated with 0.01 U/ml EPO” value is given as “above the level of expression observed in cells treated with 0.01 U/ml EPO” and the “level of expression of CD235a relative to cells treated with 2.0 U/ml EPO” value is listed as “approximately 37%”. In [15], the “% BFU-E relative to 3 U/ml EPO” value is 31% and the BFU-Es/Dish is on record as 11. In addition, in the assay on PI3K [16], the “phosphorylation of PI3K” value was “stimulated phosphorylation”. The “binding of GATA1 to DNA (EMSA)” value with GATA1 [13] (100 nM Compound 101) is listed as “induce binding of GATA1 to DNA”. For the same compound, in the assay on UT7 cells, the “effect of EPO receptor- and GATA1-specific siRNAs on compound activity (relative cell viability)” value was “blocks activity”.
